Literature values in US20110218104A1, “Biodiesel Solvents in Pesticide Compositions” (AUBURN UNIVERSITY, priority 2010, published 2011).

Settings: Merck Index, 1989

Structure (SMILES): NC(N)=O [urea]
- solubility in glycerin: considerable solubility
